The text below walks through data of patent US8546377B2 (AbbVie Inc., priority 2009, dated 2013).

One assay deals with T1, 5HT2B receptors (Homo sapiens, UniProt P41595).
T1 construct: expressed in transfected cells; host or cells: CHO-K1 cells
The assay can be described thus: Human 5-HT2B functional assay in CHO-K1 cells (calcium flux, FLIPR). It counts as cell-based. As to the method: (§1) (iii) Human 5-HT2C and 5-HT2B Functional Assay in CHO-K1 Cells
(§2) CHO-K1 cells over-expressing 5HT2C or 5HT2B receptors were grown in 1272 cm^2 flasks to 70-80% confluency in UltraCHO media supplemented with 1% dialyzed fetal bovine serum (FBS), 250 μg/mL zeocin, 100 U/mL penicillin/streptomycin, and 400 μg/mL geneticin. The cells were dissociated from the flasks using 0.05% trypsin, resuspended in freezing media and stored in liquid nitrogen until use. Calcium flux experiments were done using frozen cells. The cells were diluted in media containing 1% dialyzed FBS and 100 U/mL penicillin/streptomycin and plated into 384-well poly-D-Lysine coated plates (15,000 cells/well). Then the plates were incubated overnight in a cell incubator at 37° C., 5% CO2. On the next day, the growth media was replaced with media without FBS and further incubated overnight. On day three, the changes in intracellular Ca^2+ were determined using calcium sensitive fluorescent dye, Ca4 (MDS Analytical Technologies, Sunnyvale, Calif.) by loading 15 μL of diluted dye with 2.5 mM probenecid into the cells containing media and incubated at room temperature for 60 minutes in dark.
(§3) Fluorescence measurements were read at 25° C. at an excitation wavelength of 480 nm and an emission wavelength of 530 nm in FLIPR (MDS). Baseline fluorescence was measured for the first 10 seconds and then 15 μL of 4× concentrations of serotonin/test compounds was added to the cell plate. The fluorescence intensity was captured every second for the first 1 minute followed by every 5 seconds for an additional 2 minutes. The increase in fluorescent response was determined and was normalized to the response of serotonin. The concentration response of compounds was done from a starting concentration of 10 μM, 1:10 dilution across 6 wells with a final dimethyl sulfoxide concentration of 0.2% and was fitted using a 4-parameter logistic equation. The concentration at which a compound exerts half its maximal effect was named as ‘effective concentration 50’ or ‘EC50’.
(§4) Emax is the maximum functional response or efficacy expressed as a percentage relative to the effect of serotonin.

The next assay addresses T2, 5HT2C receptors (Homo sapiens, UniProt P28335).
T2 sequence (P28335 33-458): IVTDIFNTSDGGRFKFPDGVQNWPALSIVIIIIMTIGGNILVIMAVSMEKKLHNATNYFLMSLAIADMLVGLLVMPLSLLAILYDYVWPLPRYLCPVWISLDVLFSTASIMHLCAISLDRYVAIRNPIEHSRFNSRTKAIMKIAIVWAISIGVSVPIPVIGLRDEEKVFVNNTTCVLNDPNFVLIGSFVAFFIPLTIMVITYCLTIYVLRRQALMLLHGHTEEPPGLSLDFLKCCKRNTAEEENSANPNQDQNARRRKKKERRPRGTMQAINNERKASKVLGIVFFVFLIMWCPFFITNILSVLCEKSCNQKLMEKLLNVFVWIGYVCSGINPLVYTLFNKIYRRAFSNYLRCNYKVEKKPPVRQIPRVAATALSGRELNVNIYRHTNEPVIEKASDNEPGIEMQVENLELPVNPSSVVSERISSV
The assay can be described thus: Human 5-HT2C functional assay in CHO-K1 cells (calcium flux, FLIPR). In kind it is cell-based. The arrangement: expressed in transfected cells; host or cells: CHO-K1 cells. As to the method: as §1, §2, §3, §4

Setting [1] is: CHO-K1 cells over-expressing 5HT2B, calcium flux, read-out: EC50 (μM), 5-HT2B Agonist Activity.
Setting [2] is: CHO-K1 cells over-expressing 5HT2C, calcium flux, read-out: EC50 (μM), 5-HT2c Agonist Activity.
Setting [3] is: CHO-K1 cells, percentage relative to the effect of serotonin, read-out: Emax (%), 5-HT2c Agonist Activity.
Where [4] appears, read: CHO-K1, read-out: Emax (%), 5-HT2B Agonist Activity.
Where [5] appears, read: CHO-K1, read-out: Emax (%), 5-HT2c Agonist Activity, CHO-K1 cells, percentage relative to the effect of serotonin.
Setting [6] is: CHO-K1 cells, percentage relative to the effect of serotonin, read-out: Emax (%), 5-HT2B Agonist Activity.

Read-outs that look alike come from different tables or passages of the source.

T1 sequence (P41595 whole entry): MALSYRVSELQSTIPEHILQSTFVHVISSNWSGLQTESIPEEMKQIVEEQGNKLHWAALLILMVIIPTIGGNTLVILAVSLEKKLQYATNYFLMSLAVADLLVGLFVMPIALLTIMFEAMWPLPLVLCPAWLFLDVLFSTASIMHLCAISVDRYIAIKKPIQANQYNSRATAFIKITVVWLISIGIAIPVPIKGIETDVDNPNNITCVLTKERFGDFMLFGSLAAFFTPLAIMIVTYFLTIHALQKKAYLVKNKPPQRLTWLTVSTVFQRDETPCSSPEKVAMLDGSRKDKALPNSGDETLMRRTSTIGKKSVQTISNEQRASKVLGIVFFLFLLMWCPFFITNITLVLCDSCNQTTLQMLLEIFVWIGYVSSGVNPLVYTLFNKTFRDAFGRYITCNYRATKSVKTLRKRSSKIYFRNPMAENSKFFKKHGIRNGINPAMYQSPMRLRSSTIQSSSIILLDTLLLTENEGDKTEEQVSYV

Turning to `O=C1CC2CNCCN2c2cc(-c3ccc4ccccc4c3)ccc2N1` (stereo not shown) [Example 57, 10-(2-naphthyl)-1,2,3,4,4a,5-hexahydropyrazino[1,2-a][1,5]benzodiazepin-6(7H)-one], the values for the EC50 at 5HT2B receptors (setting [1]) and at 5HT2C receptors (setting [2]) were more than 10 µM and 0.9 µM, respectively. Further, on 5HT2C receptors (setting [3]), the Emax was 100%.

On to `Fc1ccc2c(c1F)OCC[C@H]1CNCCN21` [Example 218, (4aS)-8,9-difluoro-2,3,4,4a,5,6-hexahydro-1H-pyrazino[2,1-d][1,5]benzoxazepine], for which the EC50 on 5HT2B receptors is 0.07 µM; on 5HT2C receptors, 0.002 µM. Moreover, the Emax came to 20% at 5HT2B receptors (setting [4]) and 100% at 5HT2C receptors (setting [5]).

On to `CCN1C(=O)CC2CN(C)CCN2c2ccc(Cl)cc21` (stereo not shown) [Example 78, 9-chloro-7-ethyl-3-methyl-1,2,3,4,4a,5-hexahydropyrazino[1,2-a][1,5]benzodiazepin-6(7H)-one], for which the EC50 at 5HT2B receptors (setting [1]) was more than 10 µM; at 5HT2C receptors (setting [2]) it was 1 µM. For the same molecule, the Emax at 5HT2C receptors (setting [3]) amounted to 50%.

Take `C[C@H](Cc1ccccc1)Oc1ccc2c(c1)N1CCNC[C@@H]1CC(=O)N2` [Example 165, (4aS)-10-{[(2R)-1-phenylpropan-2-yl]oxy}-1,2,3,4,4a,5-hexahydropyrazino[1,2-a][1,5]benzodiazepin-6(7H)-one]: the results for the EC50 on 5HT2B receptors (setting [1]) and on 5HT2C receptors (setting [2]) were more than 10 µM and 0.008 µM, respectively. Moreover, the Emax at 5HT2C receptors (setting [3]) is more than 120%.

On to `O=C1CC2CNCCN2c2cc(/C=C/c3ccccc3C(F)(F)F)ccc2N1` (stereo not shown) [Example 142, 10-{(E)-2-[2-(trifluoromethyl)phenyl]vinyl}-1,2,3,4,4a,5-hexahydropyrazino[1,2-a][1,5]benzodiazepin-6(7H)-one], for which the EC50 on 5HT2B receptors (setting [1]) is more than 10 µM; on 5HT2C receptors (setting [2]) it was 0.08 µM. In addition, the Emax at 5HT2C receptors (setting [3]) was more than 120%.

Turning to `FCC(CF)N1CCN2c3ccccc3OCC[C@H]2C1` [Example 265, (4aS)-3-(1,3-difluoropropan-2-yl)-2,3,4,4a,5,6-hexahydro-1H-pyrazino[2,1-d][1,5]benzoxazepine], the EC50 on 5HT2B receptors (setting [1]) is more than 10 µM; at 5HT2C receptors (setting [2]), 2 µM. The maximum response (Emax) on 5HT2C receptors (CHO-K1, read-out: Emax (%), 5-HT2c Agonist Activity) was found to be 70%.

In the case of `COc1ccc2c(c1)OCC[C@H]1CNCCN21` [Example 243, (4aS)-9-methoxy-2,3,4,4a,5,6-hexahydro-1H-pyrazino[2,1-d][1,5]benzoxazepine], the values for the EC50 on 5HT2B receptors and at 5HT2C receptors were more than 10 µM and 0.05 µM, respectively. On 5HT2C receptors (CHO-K1 cells, percentage relative to the effect of serotonin), the “Emax (%), 5-HT2c Agonist Activity” value was 55%.

Consider `COc1ccc2c(c1)OCC[C@H]1CN(C)CCN21` [Example 232, (4aS)-9-methoxy-3-methyl-2,3,4,4a,5,6-hexahydro-1H-pyrazino[2,1-d][1,5]benzoxazepine], for which the EC50 was more than 10 µM on 5HT2B receptors and 0.05 µM on 5HT2C receptors. In addition, the Emax on 5HT2C receptors (setting [5]) was found to be 50%.

On to `O=C1C[C@H]2CNCCN2c2cc(OCCc3ccccn3)ccc2N1` [Example 171, (4aS)-10-[2-(pyridin-2-yl)ethoxy]-1,2,3,4,4a,5-hexahydropyrazino[1,2-a][1,5]benzodiazepin-6(7H)-one], for which the EC50 on 5HT2B receptors (setting [1]) was more than 10 µM; at 5HT2C receptors (setting [2]), 0.9 µM. The Emax on 5HT2C receptors (setting [3]) was determined as 100%.

`Cc1cccc(CCOc2ccc3c(c2)N2CCNC[C@@H]2CC(=O)N3)c1` [Example 176, (4aS)-10-[2-(3-methylphenyl)ethoxy]-1,2,3,4,4a,5-hexahydropyrazino[1,2-a][1,5]benzodiazepin-6(7H)-one]: the figures for the EC50 on 5HT2B receptors (setting [1]) and at 5HT2C receptors (setting [2]) were 1 µM and 0.002 µM, respectively. For the same molecule, the figures for the Emax at 5HT2B receptors (setting [6]) and on 5HT2C receptors (setting [3]) were 10% and 100%, respectively.

As to `c1coc(-c2cccc3c2OCC[C@H]2CNCCN32)c1` [Example 251, (4aS)-8-(2-furyl)-2,3,4,4a,5,6-hexahydro-1H-pyrazino[2,1-d][1,5]benzoxazepine], the EC50 is more than 10 µM at 5HT2B receptors (setting [1]) and 0.0001 µM on 5HT2C receptors (setting [2]). The Emax on 5HT2C receptors (setting [3]) came to 90%.

`c1cc(-c2ccncc2)c2c(c1)N1CCNC[C@@H]1CCO2` [Example 247, (4aS)-8-(pyridin-4-yl)-2,3,4,4a,5,6-hexahydro-1H-pyrazino[2,1-d][1,5]benzoxazepine]: the EC50 was more than 10 µM at 5HT2B receptors and 0.007 µM on 5HT2C receptors. Also, the Emax on 5HT2C receptors (setting [5]) came to 85%.

Regarding `CC(C)Cc1ccc2c(c1)N1CCNC[C@@H]1CCO2` [Example 213, (4aS)-10-isobutyl-2,3,4,4a,5,6-hexahydro-1H-pyrazino[2,1-d][1,5]benzoxazepine], the EC50 on 5HT2B receptors (setting [1]) came out at 1 µM; at 5HT2C receptors (setting [2]) it was 0.03 µM. Besides, the results for the Emax on 5HT2B receptors (setting [6]) and on 5HT2C receptors (setting [3]) were 25% and 120%, respectively.

Regarding `Fc1ccc(-c2ccc3c(c2)N2CCNC[C@@H]2CCO3)cc1` [Example 205, (4aS)-10-(4-fluorophenyl)-2,3,4,4a,5,6-hexahydro-1H-pyrazino[2,1-d][1,5]benzoxazepine], the EC50 was determined as 5 µM at 5HT2B receptors (setting [1]) and 0.05 µM on 5HT2C receptors (setting [2]). For the same molecule, the Emax at 5HT2B receptors (setting [6]) is 10%; on 5HT2C receptors (setting [3]), more than 120%.

On to `COc1cccc2c1OCC[C@H]1CNCCN21` [Example 241, (4aS)-8-methoxy-2,3,4,4a,5,6-hexahydro-1H-pyrazino[2,1-d][1,5]benzoxazepine], for which the EC50 was more than 10 µM at 5HT2B receptors and 0.02 µM at 5HT2C receptors. For the same molecule, the Emax on 5HT2C receptors (setting [5]) worked out at 90%.

Take `C[C@@H](Oc1ccc2c(c1)N1CCNCC1CC(=O)N2)c1ccccc1` (stereo partly drawn) [Example 153, 10-[(1R)-1-phenylethoxy]-1,2,3,4,4a,5-hexahydropyrazino[1,2-a][1,5]benzodiazepin-6(7H)-one]: the EC50 on 5HT2B receptors (setting [1]) turned out to be 0.1 µM; on 5HT2C receptors (setting [2]) it was 0.01 µM. Also, the values for the Emax at 5HT2B receptors (setting [6]) and on 5HT2C receptors (setting [3]) were 20% and 110%, respectively.

Regarding `CN1CCC2CNCCN2c2ccc(Cl)cc21` (stereo not shown) [Example 81, 9-chloro-7-methyl-1,2,3,4,4a,5,6,7-octahydropyrazino[1,2-a][1,5]benzodiazepine], the EC50 at 5HT2B receptors was found to be 1 µM; at 5HT2C receptors, 0.05 µM. Further, the figures for the Emax on 5HT2B receptors (setting [4]) and on 5HT2C receptors (setting [5]) were 20% and more than 120%, respectively.

Take `O=C1C[C@H]2CNCCN2c2cc(OC(F)F)ccc2N1` [Example 131, (4aS)-10-(difluoromethoxy)-1,2,3,4,4a,5-hexahydropyrazino[1,2-a][1,5]benzodiazepin-6(7H)-one]: the results for the EC50 at 5HT2B receptors (setting [1]) and at 5HT2C receptors (setting [2]) were 0.08 µM and 0.04 µM, respectively. Moreover, the results for the Emax on 5HT2B receptors (setting [6]) and at 5HT2C receptors (setting [3]) were 20% and 110%, respectively.

With `CN1CCN2c3ccccc3OCC[C@H]2C1` [Example 132, (4aS)-3-methyl-2,3,4,4a,5,6-hexahydro-1H-pyrazino[2,1-d][1,5]benzoxazepine], the values for the EC50 at 5HT2B receptors and at 5HT2C receptors were more than 10 µM and 0.007 µM, respectively. Further, the Emax on 5HT2C receptors (setting [5]) is more than 120%.

As for `O=C1CC2CNCCN2c2cc(OCCc3cccc(F)c3)ccc2N1` (stereo not shown) [Example 152, 10-[2-(3-fluorophenyl)ethoxy]-1,2,3,4,4a,5-hexahydropyrazino[1,2-a][1,5]benzodiazepin-6(7H)-one], the half-maximal effective concentration (EC50) is more than 10 µM at 5HT2B receptors (setting [1]) and 0.01 µM on 5HT2C receptors (setting [2]). Moreover, on 5HT2C receptors (setting [3]), the Emax is 100%.

Turning to `C[C@H](Oc1ccc2c(c1)N1CCNCC1CC(=O)N2)c1ccccc1` (stereo partly drawn) [Example 154, 10-[(1S)-1-phenylethoxy]-1,2,3,4,4a,5-hexahydropyrazino[1,2-a][1,5]benzodiazepin-6(7H)-one], the results for the EC50 at 5HT2B receptors (setting [1]) and at 5HT2C receptors (setting [2]) were 0.7 µM and 0.103 µM, respectively. The Emax was 44% on 5HT2B receptors (setting [6]) and more than 120% at 5HT2C receptors (setting [3]).

For `O=C1CC2CNCCN2c2cc(/C=C/c3ccccc3F)ccc2N1` (stereo not shown) [Example 141, 10-[(E)-2-(2-fluorophenyl)vinyl]-1,2,3,4,4a,5-hexahydropyrazino[1,2-a][1,5]benzodiazepin-6(7H)-one], the EC50 on 5HT2C receptors (setting [2]) was 0.004 µM. On 5HT2C receptors (setting [3]), the Emax is 88%.
